From ChEMBL document CHEMBL3616398, “Recent advances on the synthesis of hepatitis C virus NS5B RNA-dependent RNA-polymerase inhibitors” (Eur J Med Chem, 2015) come the findings set out here.

In general, pIC50 refers to −log10 of the IC50, conventionally taken in molar units. In general, pEC50 refers to the EC50 on a negative log10 scale, so that one unit is a factor of ten.

pEC50, pIC50: −log10 of the molar value.

Test [1] has as its system Hepatitis C virus. The test can be described thus: Antiviral activity against HCV genotype 1b replicon system. Format: functional, organism-based, Hepacivirus hominis.
The nature of test [2]: Inhibition of HCV genotype 1b NS5B RNA dependent RNA polymerase assessed as inorganic pyrophosphate generation by luminometry. Details: species or system Hepatitis C virus subtype 1b.
Test [3] has as its system Hepatitis C virus. The experiment in a line: Antiviral activity against HCV genotype 1b infected in human Ava.5 cells after 3 days assessed as protection from virus-induced cytotoxicity by MTT assay. Conditions: Ava5, 72 h. Format: functional, organism-based, Hepacivirus hominis. For orientation: Formazan colour is commonly taken as a measure of viable cells.

`Cc1nc2c(s1)CCCn1c-2c(C2CCCCC2)c2ccc(C(=O)O)cc21` had a pIC50 with Hepatitis C virus [1] of 5.08.

Take `O=C(NCCCc1ccccc1)c1nc2ccccc2c(=O)n1O`: the pIC50 in test [2] is 5.06. Moreover, the pEC50 in the test with Hepatitis C virus [3] is 4.76.
